# Reference: patent US20150105471A1, “PARACETAMOL FOR PARENTERAL ADMINISTRATION” (Fresenius Kabi Deutschland GmbH, priority 2009, published 2015)
# Experiments:
# [1] = electrical conductivity of aqueous paracetamol solutions; type: physicochemical
# Experimental: The composition according to the invention, preferably an infusion solution, has an electrical conductivity of at most 200 μS cm^−1. The measurement of the electrical conductivity of aqueous solutions is known to the person skilled in the art and suitable measuring apparatuses are obtainable commercially. The electrical conductivity is preferably measured at room temperature. […]
# Aqueous solutions of paracetamol and further ingredients were prepared. The electrical conductivity of the solutions was measured and the storage stability of paracetamol was determined by means of the formation of degradation products (for the formation of the dimer cf., for example, D. W. Pottert et al, J Biol Chem, 1985, […], 12174-80; W. Clegg et al., Acta Crystallographica, 1998, C54, 1881-2).
# [2] = buffer properties of cysteine; type: physicochemical; conditions: pH 5.5 to 7
# Text: In a preferred embodiment, the composition according to the invention, preferably an infusion solution, contains cysteine, if appropriate additionally to mannitol.
electrical conductivity ([1]; 10 g of paracetamol in 1000 ml of water),electrical conductivity ([1]; 10 g of paracetamol in 1000 ml of water plus 100 mg of NaCl (0.01% by weight of NaCl)),buffer properties [2],SMILES
about 4 μS/cm,about 200 μS/cm,,CC(=O)Nc1ccc(O)cc1 [paracetamol]
,,no buffer properties at all,N[C@@H](CS)C(=O)O [cysteine]
